Data on seven molecules can be found in publication PMC4169579, “Proteolytic Activity of Prostate-Specific Antigen (PSA) towards Protein Substrates and Effect of Peptides Stimulating PSA Activity” (PLoS ONE, 2014).

For assay [1], the target named is T1, PSA (Homo sapiens, UniProt P07288).
T1 construct: from tissue; host or cells: pooled human seminal fluid
Briefly: Enzyme kinetics of PSA with fluorogenic peptide substrate. The class given is biochemical. The protocol:
(§1) The major form of active PSA (isoform PSA-B) was purified from pooled human seminal fluid by immunoaffinity chromatography followed by anion exchange chromatography. Semenogelins I and II were isolated from human seminal fluid as previously described, but instead of alkylating the proteins, the reducing agent 30 mM dithiothreitol (Sigma-Aldrich, St. Louis, MO) was included in all buffers during purification. Semenogelins were stored in the purification buffer containing 2 M urea and 5 mM EDTA at −70°C. Prior to cleavage by PSA, the buffer was exchanged to 50 mM Tris, pH 7.7, containing 0.15 M NaCl (TBS), with Amicon Ultra centrifugal filter units (MW cut-off 30 kDa) (Millipore, Cork, Ireland) at 4°C, and protein concentration was determined by measuring absorbance at 280 nm.
(§2) The proteolytic activity of PSA towards small peptide substrates was compared with two different substrates. Both assays were performed in 96-well microplates (PerkinElmer, Turku, Finland) with duplicates in two separate experiments (n = 2) in TBS buffer containing 1 g/l bovine serum albumin (0.1% BSA-TBS). The chromogenic chymotrypsin substrate S-2586 (MeO-Suc-Arg-Pro-Tyr-pNA·HCl) (Chromogenix Instrumentation Laboratory, Milan, Italy) at 0.125–5 mM concentration or 0.125–2 mM fluorogenic PSA substrate 4-morpholinecarbonyl-HSSKLQ-AMC (7-amido-4-methylcoumarin) (custom peptide from JPT Peptide Technologies GmbH, Berlin, Germany) were added to the wells together with 175 nM (5 µg/ml) PSA. The absorbance was measured at 405 nm immediately and at 5 min intervals for 30 min and fluorescence at 355/460 nm (excitation/emission) after 10 min, 20 min, 40 min, 1 h, 2 h and 4 h incubation at room temperature with a Victor 1420 Multilabel plate reader (PerkinElmer). In the fluorogenic assays all wells contained 5% dimethyl sulfoxide (DMSO).
The maximum velocity of the reaction (Vmax) and the Michaelis constant (Km), i.e., substrate concentration at which the reaction rate is half of the maximum, were evaluated for PSA with both peptide substrates using Sigma Plot 11 with the Enzyme Kinetics Module 1.3 (SYSTAT Software, Inc., San Jose, CA) and the catalytic constant (kcat), i.e., the number of substrate molecules converted to product per time unit, was calculated from the equation kcat = Vmax/[PSA]. The absorbance was converted to molar concentration with the Lambert-Beer equation (A = εcl), using the molar absorptivity of pNA (εpNA = 8800 M^−1cm^−1). Fluorescence (counts per second, cps) was transformed to molar concentrations with SigmaPlot by means of a standard curve for 7-amido-4-methylcoumarin (AMC, Sigma-Aldrich).

Assay [2] has as its target T1, PSA. Briefly: Stimulation of PSA activity by peptides, fluorogenic substrate. The class given is biochemical. The conditions noted are these: 350 nM PSA preincubated with 0.35–350 µM peptide 30 min room temperature, 0.3 mM fluorogenic substrate, 0.75% DMSO, mean ± SD, n = 3; for Emax: read-out: Stimulation (maximal stimulation capacity as compared to PSA alone, Vmax (peptide+PSA)/V(PSA)); for EC50: read-out: [peptide]½Vmax (peptide concentration with half-maximal stimulation). The protocol:
as §1
(§3) Peptides that bind to PSA and stimulate its activity have previously been identified by phage display. […] The purity of the peptides as determined by HPLC was over 95% in all batches. We have not observed any significant variation in the capacity of the peptides to stimulate the PSA activity between different peptide batches and suppliers.
The proteolytic activity of PSA towards small peptide substrates was compared with two different substrates. Both assays were performed in 96-well microplates (PerkinElmer, Turku, Finland) with duplicates in two separate experiments (n = 2) in TBS buffer containing 1 g/l bovine serum albumin (0.1% BSA-TBS). […] The absorbance was measured at 405 nm immediately and at 5 min intervals for 30 min and fluorescence at 355/460 nm (excitation/emission) after 10 min, 20 min, 40 min, 1 h, 2 h and 4 h incubation at room temperature with a Victor 1420 Multilabel plate reader (PerkinElmer). […]
The effect of the PSA-stimulating peptides on the activity of PSA was characterized with chromogenic and fluorogenic substrates in two (n = 2) and three (n = 3) separate experiments, respectively. […] Then 0.2 mM chromogenic or 0.3 mM fluorogenic substrate was added and absorbance or fluorescence was measured as described above. […] The velocity of the reaction (V) was calculated from the change of absorbance/min or fluorescence/min at the linear phase of the reaction and converted to molar concentration as described above. Vmax (peptide + PSA), i.e., the maximal velocity of the reaction with increasing peptide concentrations and given PSA and substrate concentrations, was determined using SigmaPlot, fitting the data to f = y0+a*(1−exp(−b*x)) using non-linear regression. The maximal stimulatory capacity of the peptide, Vmax (peptide+PSA)/V(PSA), was calculated. The peptide concentrations at which the stimulation of PSA was half of the maximum ([peptide]½Vmax) and at which PSA activity was increased two-fold when compared to PSA alone ([peptide]2V) were also determined.

Assay [3] has as its target T1, PSA. Briefly: Stimulation of PSA activity by peptides, chromogenic substrate. Format: biochemical. The conditions noted are these: for Emax / EC50: 350 nM PSA preincubated with 0.35–350 µM peptide 30 min room temperature, 0.2 mM chromogenic substrate S-2586, mean ± SD, n = 2; for Emax: read-out: Stimulation (maximal stimulation capacity as compared to PSA alone, Vmax (peptide+PSA)/V(PSA)); for EC50: read-out: [peptide]½Vmax (peptide concentration with half-maximal stimulation). As for the experimental part: as §1, §3, §2
The effect of the PSA-stimulating peptides on the activity of PSA was characterized with chromogenic and fluorogenic substrates in two (n = 2) and three (n = 3) separate experiments, respectively. PSA (350 nM) was first preincubated with peptides (0.35–350 µM) for 30 min at room temperature. Then 0.2 mM chromogenic or 0.3 mM fluorogenic substrate was added and absorbance or fluorescence was measured as described above. Fluorogenic assays with the peptides were performed in black 384-well microplates (Corning Inc., Corning, NY) and all wells contained 0.75% DMSO. The velocity of the reaction (V) was calculated from the change of absorbance/min or fluorescence/min at the linear phase of the reaction and converted to molar concentration as described above. Vmax (peptide + PSA), i.e., the maximal velocity of the reaction with increasing peptide concentrations and given PSA and substrate concentrations, was determined using SigmaPlot, fitting the data to f = y0+a*(1−exp(−b*x)) using non-linear regression. The maximal stimulatory capacity of the peptide, Vmax (peptide+PSA)/V(PSA), was calculated. The peptide concentrations at which the stimulation of PSA was half of the maximum ([peptide]½Vmax) and at which PSA activity was increased two-fold when compared to PSA alone ([peptide]2V) were also determined.

Assay [4] has as its target T1, PSA. In words: Surface plasmon resonance binding of peptides to PSA. As to conditions: SPR, peptide 1.2–600 µM, PBS pH 7.4, 25°C.
Method: The binding kinetics and affinity of the peptides stimulating the activity of PSA were studied by surface plasmon resonance (SPR) on a Biacore T100 instrument using Biacore T100 Control Software 2.0.3 (both from GE Healthcare, Uppsala, Sweden). PSA (20 µg/ml, 0.7 µM) and α-chymotrypsin (20 µg/ml, 0.8 µM) were covalently immobilized on the Series S Sensor Chip CM5 (GE Healthcare) by using amine coupling in 10 mM sodium acetate buffer, pH 5.0. The immobilization levels varied in different experiments between 2000–3900 resonance units (RU) for PSA and 1400–2500 RU for chymotrypsin. Chymotrypsin was used as a reference for PSA, i.e., the binding of peptides to the chymotrypsin surface was subtracted as a non-specific interaction from the binding of peptides to the PSA surface in all measurements.
Binding to PSA was studied at various peptide concentrations (1.2–600 µM) in phosphate buffered saline (PBS), pH 7.4 (Lonza, Verviers, Belgium), containing 6.7 mM PO4 and 0.15 M NaCl, with a flow rate of 40 µl/min at 25°C. Contact time of the peptides with PSA was 60 s and dissociation time 180 s. In all other steps except the peptide binding the running buffer was supplemented with 0.005% surfactant P20 (GE Healthcare). The chip was washed after each measurement cycle with the running buffer, which removed all peptides. The binding data were analyzed using Biacore T100 Evaluation software 2.0.3. […]
The target of assay [5] is T1, PSA. Briefly: Proteolytic cleavage of protein substrates by PSA (SDS-PAGE, silver staining). The conditions noted are these: 0.2 µM PSA, 1 µM substrate, TBS, 37°C; disappearance of full-length band. Format: biochemical. The protocol:
as §1
(§4) Protein LoBind tubes (Eppendorf AG, Hamburg, Germany) were used in all protein degradation experiments.
(§5) PSA (0.2–1 µM) and 0.5–1 µM of each protein substrate were incubated at 37°C for 22 h in TBS buffer. During the incubation, samples of 15 µl were taken at different time points: 0 min, 10 min, 30 min, 2 h, 5 h and 22 h, and stored at −20°C before further analysis.
Immediately after each incubation, reducing 4× SDS-loading buffer (8% SDS), containing 1 M β-mercaptoethanol or 75 mM dithiothreitol, was added to each sample and proteins were denatured at 70°C for 10 min. The samples were immediately analyzed by SDS-PAGE or frozen at −20°C. Frozen samples were heated again at 70°C before loading on the gel. The cleavage of protein substrates by PSA, i.e., the disappearance of the full-length protein bands, was quantified from scanned images of silver stained gels by the measurement of relative optical densities of the protein bands using ImageJ [40]. […]
Proteins were visualized either by silver staining or Western blotting. […] After 30 min incubation in 0.2% AgNO3, the gel was rinsed briefly with water and proteins were detected with development solution, containing 700 µl/l of 37% formaldehyde, 0.001% sodium thiosulfate and 3% anhydrous Na2CO3. […]

The next assay relates to plasminogen. Briefly: Plasminogen cleavage control with MMP-3. Format: biochemical, human. As to conditions: 1 µM MMP-3 or PSA, 1 µM plasminogen, 37°C, 22 h, TBS. The protocol: as §4, §5
Another assay relates to IGFBP-3. Briefly: Immunofluorometric assay of intact IGFBP-3 after incubation with PSA and peptides. Format: biochemical, human. As to conditions: 0.2 µM PSA, 2.2 µM IGFBP-3, 37°C, TBS; 22 h in text (24 h in method), n = 2. As for the experimental part: To study the degradation of IGFBP-3 by PSA, we used a sandwich-type immunofluorometric assay (IFMA) that measures only intact IGFBP-3, but not that cleaved by PSA [43], [44]. […] After incubation, the samples were diluted 1∶1000 in IFMA assay buffer and IGFBP-3 concentrations were measured as previously described,[44].

In the next assay the test system is HUVECs. In words: HUVEC tube formation assay on Matrigel. Format: cell-based, human. As for the experimental part: Human umbilical vein endothelial cells (HUVECs) were isolated from umbilical cord veins and grown in Endothelial Cell Growth Medium (Promocell, Heidelberg, Germany) with 2% Ultroser G BioSepra serum substitute (PALL BioSepra, Cergy, France) and growth factors EGF and bFGF. For tube formation, HUVECs were grown on top of Matrigel (BD Biosciences) as described previously, [29].
To study the effect of PSA-cleaved protein fragments, 0.08 µM nidogen-1 or 0.4 µM galectin-3 (10 µg/ml each) were first incubated with 1 µM PSA for 24 h at 37°C in PBS (Lonza). Then PSA activity was blocked by one-hour incubation at room temperature with 2 µM monoclonal antibody 5C7 [38]. The mixture containing nidogen-1 or galectin-3 fragments with PSA blocked by antibody or the same amount of intact nidogen-1 or galectin-3 were added together with the cells onto gelled Matrigel and the cells were allowed to form tubular networks for 20 h. Control wells contained either PBS or 1 µM PSA. After overnight incubation, cell culture medium was collected from PBS and PSA control wells for SDS-PAGE and Western blotting. Images of tubular networks (100×magnification) were taken using an Axiovert 200 inverted light microscope connected to an AxioCam digital camera and visualized by AxioVision software (all from Zeiss, Göttingen, Germany).

Positions of bridges follow the written chain, without caps; N, C: chain ends. Residues, ends and D or L forms follow the SMILES beside them. No end group written: not given here.

T1 sequence (P07288 25-261): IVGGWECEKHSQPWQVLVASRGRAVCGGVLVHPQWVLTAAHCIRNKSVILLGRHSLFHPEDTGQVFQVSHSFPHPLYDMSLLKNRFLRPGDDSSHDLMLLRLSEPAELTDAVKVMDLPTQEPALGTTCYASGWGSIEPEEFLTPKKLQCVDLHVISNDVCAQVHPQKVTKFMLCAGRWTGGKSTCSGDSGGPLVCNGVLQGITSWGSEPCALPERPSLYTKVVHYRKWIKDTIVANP

By kcat is commonly meant the maximal rate divided by the concentration of active sites. By Km is commonly meant the substrate concentration at which the rate is half of its maximum. As to “4-morpholinecarbonyl-HSSKLQ-AMC [Fluorogenic substrate, fluorogenic PSA substrate, AMC = 7-amido-4-methylcoumarin]”, the “kcat/Km compared to literature” value on PSA [1] (compared to that reported by Denmeade et al. [36]) is on record as “about five-fold higher”. Besides, the kcat at PSA [1] (kcat = Vmax/[PSA], substrate 0.125–2 mM, 175 nM PSA, 0.1% BSA-TBS, 5% DMSO, room temperature, mean ± SD of two experiments) came to 0.19 ± 0.09 s⁻¹. For the same molecule, the Km on PSA [1] (substrate 0.125–2 mM, 175 nM PSA, 0.1% BSA-TBS, 5% DMSO, 355/460 nm, room temperature, 10 min to 4 h, mean ± SD of two experiments) stood at 1580 ± 40 µM. Further, the kcat/Km on PSA [1] (substrate 0.125–2 mM, 175 nM PSA, 0.1% BSA-TBS, 5% DMSO, room temperature, mean ± SD of two experiments) amounted to 122.0±59.4 s^−1M^−1.

As to `CC(C)C[C@@H]1NC(=O)[C@H](Cc2ccc(O)cc2)NC(=O)[C@H](CC(=O)O)NC(=O)[C@H](Cc2ccc(O)cc2)NC(=O)[C@H](CC(N)=O)NC(=O)[C@H](Cc2c[nH]cn2)NC(=O)[C@H](C)NC(=O)[C@H](Cc2ccccc2)NC(=O)[C@H](C(C)C)NC(=O)[C@@H](N)CSSC[C@@H](C(N)=O)NC(=O)[C@H](C(C)C)NC1=O` [B2-NH2] (H-CVFAHNYDYLVC-NH2; disulfide 1-12), at PSA [2], the Emax was 391 ± 11% and the EC50 was found to be 4.78 ± 1.55 µM. Besides, on PSA [3], the Emax came to 400 ± 14% and the EC50 was 5.13 ± 1.43 µM.

On to `CC[C@H](C)[C@@H]1NC(=O)[C@@H]2CSSC[C@H](NC(=O)[C@H](Cc3c[nH]cn3)NC(=O)[C@H](Cc3c[nH]cn3)NC(=O)[C@H](CCC(=O)O)NC1=O)C(=O)N[C@@H](Cc1c[nH]c3ccccc13)C(=O)N[C@@H]([C@@H](C)O)C(=O)N[C@H](C(=O)O)CSSC[C@H](N)C(=O)N[C@@H](C(C)C)C(=O)N[C@@H](C)C(=O)N[C@@H](Cc1ccc(O)cc1)C(=O)N2` [C4] (H-CVAYCIEHHCWTC-OH; disulfide 1-13, 5-10), for which the figures for the Emax at PSA [2] and on PSA [3] were 610 ± 8% and 785 ± 7%, respectively. Also, the values for the EC50 on PSA [2] and at PSA [3] were 3.72 ± 0.5 µM and 5.62 ± 2.17 µM, respectively.

For “CVFAHNADALVC (disulfide 1-12 (inferred)) [B2-NH2-control]”, at PSA [4], the “binding to PSA” value is “All peptides, except the inactive B2-NH2-control peptide, bound to PSA”. The “Stimulation of PSA activity (summary in words)” value at PSA [3] (towards chromogenic and fluorogenic peptide substrates (Figure 1, Table 2), B2 and B2-NH2-control: Figure 1A (chromogenic)) is given as “did not stimulate PSA activity at all”.

As for “IGFBP-3: recombinant human insulin-like growth factor-binding protein-3”, in the assay with PSA [5], the “time for degradation of 50% of the protein” value is 22 h.

As for “PSA: major form of active PSA (isoform PSA-B) purified from pooled human seminal fluid”, the cleavage of plasminogen entry in the assay on plasminogen is “but not PSA, cleaved 1 µM plasminogen”. In addition, the “decrease of the content of intact IGFBP-3” value with IGFBP-3 is listed as 50%. Also, the tube formation result in the assay with HUVECs (1 µM PSA, 20 h, HUVECs on Matrigel) is reported as “reduced tube formation”. The “effect of PSA pre-incubation of gelled Matrigel on tube formation” value in the assay with HUVECs (overnight pre-incubation of Matrigel with PSA, then PSA inhibited with antibody, Mattsson et al. unpublished data) is given as “did not inhibit endothelial cell tube formation”.

In the case of fibronectin, the “time for degradation of 50% of the protein” value on PSA [5] is on record as 17 h.
